These are literature values, as cited in patent US20230025663A1, “NANOFORMULATION WITH DIVERSE FUNCTIONAL MOLECULES FROM TURMERIC AND PROCESS FOR PREPARATION OF THE SAME” (ZEROHARM SCIENCES PRIVATE LIMITED, priority 2021, published 2023).

By bioavailability is commonly meant dose-corrected exposure relative to a reference, in per cent.

Each structure is given as a SMILES string.

The conditions of this data set: in vivo.

Consider `COc1cc(/C=C/C(=O)CC(=O)/C=C/c2ccc(O)c(OC)c2)ccc1O` [curcumin], for which the bioavailability is around 1%.
